Earlier results in patent US11478494B2, “Methods and substances for prevention and treatment of neurodegenerative diseases” (Locus IP Company, LLC, priority 2017, dated 2022).
*1 amine or outer side, *2 acyl side, *3 side chain or, on linkers, in order; H or OH if unused. Where a SMILES comes first, the peptide text is derived from it. Bridges are numbered along the chain shown (N, C = ends). [ ]: non-standard residue; d: D form. X1 = CC(C)CCCCCCCCC[C@H](CC(=O)[*:1])O[*:2]

Experiments:
[1] = surfactin administration
[2] = oral administration

Compound	concentration without any significant toxic effects [1]	oral dose administered without toxicity [2]
CC(C)CCCCCCCCC[C@@H]1CC(=O)N[C@@H](CCC(=O)O)C(=O)N[C@@H](CC(C)C)C(=O)N[C@H](CC(C)C)C(=O)N[C@@H](C(C)C)C(=O)N[C@@H](CC(=O)O)C(=O)N[C@H](CC(C)C)C(=O)N[C@@H](CC(C)C)C(=O)O1 [surfactin] (EL[dL]VD[dL]L; linker N-C via X1)	≤ 25 µM	
sophorolipid [SLP]		≤ 5 grams/kg of body weight
